This note sets out measurements from patent US5208344A, “Naphthalenepropionic acid derivatives as anti-inflammatory/antiallergic agents” (American Home Products Corporation, priority 1991, dated 1993).

The target in one assay is T1, 5-lipoxygenase (Homo sapiens, UniProt P09917).
T1 construct: Blood is obtained in 50-100 ml quantities from male donors; endogenous in cells; host or cells: human whole blood (leukocytes) from male donors
T1 sequence (P09917 1-674): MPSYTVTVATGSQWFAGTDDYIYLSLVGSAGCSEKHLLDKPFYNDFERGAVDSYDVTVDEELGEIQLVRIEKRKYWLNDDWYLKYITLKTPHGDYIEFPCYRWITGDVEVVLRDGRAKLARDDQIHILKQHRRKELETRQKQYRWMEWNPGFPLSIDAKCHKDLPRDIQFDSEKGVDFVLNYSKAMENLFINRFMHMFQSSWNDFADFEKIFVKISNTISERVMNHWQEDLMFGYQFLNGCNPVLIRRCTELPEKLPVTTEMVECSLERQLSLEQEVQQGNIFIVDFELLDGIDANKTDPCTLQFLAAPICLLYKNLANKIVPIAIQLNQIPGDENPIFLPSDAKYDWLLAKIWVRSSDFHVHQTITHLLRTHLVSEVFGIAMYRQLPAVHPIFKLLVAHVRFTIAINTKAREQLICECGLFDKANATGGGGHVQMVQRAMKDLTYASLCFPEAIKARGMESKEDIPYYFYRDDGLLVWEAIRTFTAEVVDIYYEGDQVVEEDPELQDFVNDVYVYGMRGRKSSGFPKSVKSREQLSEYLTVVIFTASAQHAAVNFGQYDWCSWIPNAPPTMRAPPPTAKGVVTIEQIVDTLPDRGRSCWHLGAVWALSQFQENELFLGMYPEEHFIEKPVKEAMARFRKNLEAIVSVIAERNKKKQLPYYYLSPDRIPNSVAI
The assay can be described thus: inhibition of 5-lipoxygenase in human whole blood (LTB4). It counts as cell-based. To be noted: human whole blood. Here is the method: The assay of this Example measures the ability of the compounds tested to inhibit 5-lipxygenase in human whole blood.
Blood is obtained in 50-100 ml quantities from male donors. White blood cell counts and differentials are made. Two ml of blood are placed in a 15 ml polypropylene test tube. Compounds are solubilized in dimethylsulfoxide and diluted 1:10 in 10% bovine serum albumin in phosphate buffered saline, pH 7.4 resulting in a final dimethylsulfoxide concentration of 0.1% in the blood. Then, compounds are added to the blood in a shaking water bath at 37° C. for 10 minutes prior to the addition of 30 μM calcium ionophore (A23187; Sigma). After ionophore administration, whole blood samples are mixed and incubated for 20 minutes at 37° C. in a shaking water bath. Incubation is terminated by placing samples in an ice bath and immediately adding ethylene glycol-bis-(β-aminoethyl ether)-N,N,N',N'-tetraacetic acid (10 mM). Samples are mixed and centrifuged at 1200×g for 15 minutes at 4° C. Preparation of samples for evaluation by RIA or ELISA is carried out by the following protocol. Plasma is removed from sample tubes, placed in 15 ml polypropylene test tubes containing 8 ml methanol, and then vortexed to precipitate protein. Samples are stored at -70° C. overnight. The next day, samples are centrifuged at 200×g for 15 minutes at 4° C. to pellet the precipitate. Samples are dried in a Savant speed vac concentrator, reconstituted to original volume with ice cold RIA or ELISA buffer, and stored at -70° C. until assayed. The assay for eicosanoids (LTB4, TxB2, and PGE2) is performed as described by the manufacturer of the [^3 H]-RIA kit or ELISA kit (LTB4 -Amersham, TxB2 and PGE2 - Caymen Chemical).
The total eicosanoid level in 2 ml of blood is calculated and reported as ng/10^6 neutrophils. Significance is determined by a one-way analysis of variance with least significant difference (LSD) comparisons to control (p≤0.05) and IC50 's (μM) are determined by regression analysis (Finney, 1978). Drug effects are expressed as percent change form control values.
Compounds tested in vitro are solubilized in dimethylsulfoxide and diluted 1:10 in 10% bovine serum albumin in phosphate buffer saline resulting in a final dimethylsulfoxide concentration of 0.1% in the blood.

The next assay addresses T2, LTD4 (Cavia porcellus, UniProt Q2NNR5).
T2 construct: isolated guinea pig trachea; from tissue; host or cells: guinea pig tracheal rings
T2 sequence (Q2NNR5 1-340): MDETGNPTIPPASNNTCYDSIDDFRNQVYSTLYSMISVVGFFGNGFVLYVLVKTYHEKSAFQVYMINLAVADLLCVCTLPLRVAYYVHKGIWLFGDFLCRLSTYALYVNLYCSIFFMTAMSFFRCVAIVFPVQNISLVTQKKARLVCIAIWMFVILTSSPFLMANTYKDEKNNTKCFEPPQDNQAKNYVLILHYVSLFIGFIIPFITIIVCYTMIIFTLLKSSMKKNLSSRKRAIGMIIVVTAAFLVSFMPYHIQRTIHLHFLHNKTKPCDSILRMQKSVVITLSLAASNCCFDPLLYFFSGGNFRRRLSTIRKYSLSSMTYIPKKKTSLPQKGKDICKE
In words: LTD4 antagonist activity in isolated guinea pig trachea. It counts as cell-based. To be noted: 1 × 10^-5 M. Here is the method: The LTD4 antagonist activity of the compounds of the invention is assessed in the in vitro isolated guinea pig trachea assay. Male Hartley guinea pigs (350-400 g) are euthanized by a blow to the head, the neck is opened and the trachea removed. The trachea is maintained in aerated physiological salt solution, cleared of connective tissue and fat and cut into rings approximately 2 mm in width (usually containing two cartilaginous segments per ring). Two pieces of silk suture are then passed through the lumen of the tracheal ring and are tied around the cartilage, one on each side of the trachealis muscle. The tracheal ring is suspended between a glass hook and a force displacement transducer in a 10 ml organ bath for measurement of isometric tension. Tissues are maintained at 37° C. in aerated ([…] /5% CO2) physiological salt solution of the following composition: […] The tracheal rings are maintained at 2 g resting tension and equilibrated for 45 minutes (with frequence washing and readjustment of resting tension). The tracheal rings are first contracted by the addition of carbachol (3×10^-6 M), to determine tissue responsiveness and establish a reference contraction. On attainment of a stable level of contraction (approximately 30 minutes), the tissues are washed several times until baseline tension has been restored and the re-equilibrated for 30 minutes. The tissues are then incubated for 45 minutes with a test antagonist (either 1×10^-6 M or 1×10^-5 M) or 10 μl of an appropriate solvent control (control, non-treated). One tissue in each group serves as the control. Twenty minutes prior to the construction of the LTD4 cumulative concentration-response curve, L-[…]×10^-2 M final bath concentration) is added to inhibit bioconversion of LTD4 to LTE4. Only one LTD4 concentration-response curve is constructed in each tissue. All responses to LTD4 in an individual tissue are measured as a percentage of the reference contraction of that tissue to carbachol. LTD4 antagonist activity is determined by comparison of the concentration response curves of LTD4 in the presence and absence of antagonist. Assessment of the relative rightward shift of the antagonist treated curve relative to the solvent (control) treated tissue is calculated as a concentration ratio (Eq. A) and used in subsequent calculations to derive an antagonist pKB value (Eqs. B and C). In the vent that the maximum response to LTD4 is depressed, the EC50 for that particular curve is determined, an "apparent" pKB reported, and the compound reported as "not-competitive." [formula] If a compound is found to be active and/or depress the maximal response to LTD4, then a range of concentrations of the test compound should be used generating multiple concentration ratios which would than be used to perform a Schild analysis, and determination of a pA2 value where appropriate.

In the next assay the test system is carrageenan paw edema. In words: rat carrageenan paw edema assay. It counts as in vivo. The note with it: Rattus norvegicus, po, 3 h, read-out: Oral ED50 (95% C.L.). Here is the method:
The compounds of the invention are further tested in the rat carrageenan paw edema assay to determine their ability to inhibit the acute inflammatory response.
140-180 gm male Sprague-Dawley rats, in groups of 6 animals are injected subcutaneously in the right paw with 0.1 ml of 1% carrageenan at zero time. Mercury plethysmographic readings (ml) of the paw are made at zero time and 3 hours later. Test compounds are suspended or dissolved in 0.5% methylcellulose and given perorally 1 hour prior to carrageenan administration.
The increase in paw volume (edema in ml.) produced by the carrageenan is measured. […] Unpaired Student's t-test is used to determine statistical significance.
Background: The carrageenan paw model is a standard test of acute inflammation.

The inhibition is the share of the control response that was lost under treatment. A lower inhibition goes with a weak effect. By IC50 is commonly meant the point on the concentration scale where inhibition reaches its midpoint. Low values mean higher potency, high ones lower potency. As usually defined, the Kb is the affinity of an antagonist, worked out from how it opposes an agonist. At 5-lipoxygenase, `C[C@H](C(=O)N(C)O)c1ccc2cc(OCc3nc4ccccc4n3C)ccc2c1` [Example 45, S-(+)-N-Hydroxy-α,N-dimethyl-6-[(1-methyl-1H-benzimidazol-2-yl)methoxy]-2-naphthaleneacetamide] yielded an inhibition at 25 µM of 75% and an IC50 of 1100 nM. On LTD4, this molecule gave a Kb of 200 nM.
In the same order, the values of `C[C@H](NC(=O)NO)c1ccc2cc(OCc3nc4ccccc4s3)ccc2c1` [Example 38, S-(-)-N-[1-[6-(2-Benzothiazolylmethoxy)-2-naphthalenyl]ethyl]-N'-hydroxyurea] are 52%, 34400 nM and more than 6310 nM.
At 5-lipoxygenase, `C[C@H](C(=O)N(C)O)c1ccc2cc(OCc3nc4ccccc4o3)ccc2c1` [Example 47, S-N-Hydroxy-α, N-dimethyl-6-(2-benzoxazolylmethoxy)-2-naphthaleneacetamide] had an inhibition at 25 µM of 84% and an IC50 of 2300 nM. Moreover, the Kb on LTD4 is 501 nM.
In the same order, the values of `C[C@H](C(=O)N(C)O)c1ccc2cc(OCc3ccccn3)ccc2c1` [Example 44, S-(+)-N-Hydroxy-α, N-diomethyl-6-(2-pyridinylmethoxy)-2-naphthaleneacetamide] are 86%, 2000 nM and 1580 nM.
With `C[C@H](C(=O)N(C)O)c1ccc2cc(OCc3nc4ccccc4s3)ccc2c1` [Example 41, S-(+)-N-Hydroxy-α,N-dimethyl-6-(2-benzothiazolylmethoxy)-2-naphthaleneacetamideone tenth hydrate], on 5-lipoxygenase, at 25 µM the inhibition was 83% and half-maximal inhibition (IC50) was put at 11400 nM. In addition, at LTD4, the Kb was 398 nM.
The corresponding values for `C[C@H](C(=O)N(C)O)c1ccc2cc(OCc3csc(-c4ccccc4)n3)ccc2c1` [Example 39, S(+)-N-Hydroxy-α,N-dimethyl-[6-(2-phenyl-4-thiazolyl)methoxy]-2-naphthaleneacetamide] are 91%, 6900 nM and 10000 nM.
In the same order, the values of `CC(NC(=O)NO)c1ccc2cc(OCc3csc(-c4ccccc4)n3)ccc2c1` (single isomer, unassigned; (-)) [Example 36, (-)-N-Hydroxy-N'-[1-[6-(2-phenyl-4-thiazolyl)methoxy-2-naphthalenyl]ethyl]urea] are 86%, 13500 nM and more than 10000 nM.
As a reminder, the ED50 is the dose that gives a 50% effect, or the effect in half of the subjects. On to `CC(=O)Oc1ccccc1C(=O)O` [Aspirin, reference compound], for which the ED50 in the assay with carrageenan paw edema was found to be 145 mg/kg.
